Measured values from ChEMBL document CHEMBL1124120, “Mapping of the beta 2-adrenoceptor on Chang liver cells. Differences between high- and low-affinity receptor states” (J Med Chem, 1988).

Assays:
[1] = target: Beta-2 adrenergic receptor (Bos taurus) (UniProt Q28044); settings: Muscle tissue
Description: Change in Gibb's free energy at Low affinity beta-2-adrenoceptor in the membranes of bovine skeletal muscle preparation

[2] = target: Beta-2 adrenergic receptor (Homo sapiens) (UniProt P07550)
Description: Change in Gibb's free energy at Low affinity beta-2-adrenoceptor in the Chang living cells

[3] = target: Beta-2 adrenergic receptor (Homo sapiens) (UniProt P07550); remark: listed apart in the source
Description: Change in Gibb's free energy at High affinity beta2- adrenoceptor in Chang living cells.

Chain of Beta-2 adrenergic receptor (Homo sapiens) (P07550 whole entry, looked up): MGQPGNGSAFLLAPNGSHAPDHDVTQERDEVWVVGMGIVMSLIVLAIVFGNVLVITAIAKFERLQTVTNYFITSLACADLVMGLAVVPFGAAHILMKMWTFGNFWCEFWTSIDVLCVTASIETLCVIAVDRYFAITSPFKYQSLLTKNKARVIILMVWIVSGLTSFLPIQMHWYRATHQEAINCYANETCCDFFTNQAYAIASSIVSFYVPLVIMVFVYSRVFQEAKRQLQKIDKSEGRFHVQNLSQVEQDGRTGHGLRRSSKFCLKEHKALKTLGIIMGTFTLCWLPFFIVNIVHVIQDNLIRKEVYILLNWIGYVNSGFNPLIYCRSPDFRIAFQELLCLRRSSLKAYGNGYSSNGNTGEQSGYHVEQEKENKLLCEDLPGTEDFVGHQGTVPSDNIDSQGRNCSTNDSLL
Chain of Beta-2 adrenergic receptor (Bos taurus) (Q28044 whole entry, looked up): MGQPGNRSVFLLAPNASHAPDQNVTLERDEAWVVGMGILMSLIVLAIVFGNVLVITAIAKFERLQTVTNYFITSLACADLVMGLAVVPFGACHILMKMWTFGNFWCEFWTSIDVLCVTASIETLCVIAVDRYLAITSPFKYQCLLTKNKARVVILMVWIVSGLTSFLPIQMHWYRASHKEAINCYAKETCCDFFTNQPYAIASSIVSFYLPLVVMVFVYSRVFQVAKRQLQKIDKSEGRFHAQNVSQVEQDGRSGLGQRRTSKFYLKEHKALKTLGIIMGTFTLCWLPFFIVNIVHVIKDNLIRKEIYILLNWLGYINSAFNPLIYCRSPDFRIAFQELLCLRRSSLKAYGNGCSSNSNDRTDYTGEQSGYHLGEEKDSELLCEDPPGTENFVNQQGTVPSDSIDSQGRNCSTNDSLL

| SMILES | -Delta G [1] | -Delta G [2] | -Delta G [3] |
| --- | --- | --- | --- |
| C=CCc1ccccc1OCC(O)CNC(C)C (stereo not given) | 13.3 | – | – |
| C=CCc1ccccc1OCC(O)CNCC(C)(C)N (stereo not given) | – | 9.54 | – |
| CC(C)(C)NCC(O)c1ccccc1Cl (stereo not given) | – | 9.17 | – |
| CC(C)NCC(O)COc1cccc2[nH]ccc12 (stereo not given) | – | 12.8 | – |
| CCCc1ccccc1OCC(O)CNC(C)C (stereo not given) | 13.1 | 12.9 | – |
| CNC[C@H](O)c1ccc(O)c(O)c1 | – | 6.92 | 10.1 |
| NC[C@H](O)c1ccc(O)c(O)c1 | – | 6 | 8.64 |
| CC(C)(C)NCC(O)COc1cccc2[nH]c(C#N)c(I)c12 (racemic) | – | 15.2 | – |
| CC(C)(C)NCC(O)c1cc(Cl)c(N)c(Cl)c1 (racemic) | 11 | – | – |
| CC(C)(C)NCC(O)c1cc(Cl)c(O)c(Cl)c1 (racemic) | 10.5 | 11.1 | – |
| CC(C)(C)NCC(O)c1cc(O)cc(O)c1 (racemic) | 8.13 | – | – |
| CC(C)(C)NCC(O)c1ccc(O)c(C(N)=O)c1 (racemic) | – | 9.54 | 11.2 |
| CC(C)(C)NCC(O)c1ccc(O)c(CO)c1 (racemic) | 9.34 | – | – |
| CC(C)(C)NCC(O)c1ccc(O)c(N)c1 (racemic) | 8.5 | 7.73 | 9.69 |
| CC(C)(C)NCC(O)c1ccc(O)c(O)c1 (racemic) | 9.29 | 8.5 | 11.7 |
| CC(C)(N)CNCC(O)COc1cccc2[nH]ccc12 (racemic) | – | 10.1 | – |
| CC(C)NCC(O)c1cc(Cl)c(N)c(Cl)c1 (racemic) | 10.7 | 9.08 | 11.1 |
| CC(C)NCC(O)c1cc(O)cc(O)c1 (racemic) | – | 7.19 | 10.7 |
| CC(C)NCC(O)c1ccc(NS(C)(=O)=O)cc1 (racemic) | 9.32 | – | – |
| CC(C)NCC(O)c1ccc(O)c(CO)c1 (racemic) | – | 7.41 | 9.6 |
| CC(C)NCC(O)c1ccc(O)c(N)c1 (racemic) | 7.93 | 7.17 | 9.13 |
| CC(C)NCC(O)c1ccc(O)cc1 (racemic) | – | – | 9.76 |
| CC(C)NCC(O)c1ccc([N+](=O)[O-])cc1 (racemic) | – | 8.23 | – |
| CC(C)NCC(O)c1ccc2ccccc2c1 (racemic) | 10.1 | – | – |
| CC(C)NCC(O)c1cccc(O)c1 (racemic) | 9 | 7.05 | – |
| CC(C)NC[C@H](O)COc1ccc(O)cc1 (racemic) | 8.9 | 9.76 | – |
| CC(Cc1ccc(O)cc1)NCC(O)c1cc(O)cc(O)c1 (racemic) | – | 8.28 | – |
| CNc1cc(C(O)CNC(C)(C)C)ccc1O (racemic) | – | 9.39 | 10.5 |
| Cc1cc(C)cc(OCC(O)CNC(C)C)c1 (racemic) | 11.8 | 10.4 | – |
| Cc1cccc(OCC(O)CNC(C)C)c1 (racemic) | 10.9 | 11.4 | – |
